Data set [1] concerns RAW-Blue cells. Nature of the data set: NF-κB induction in RAW-Blue reporter cells (RAW 264.7 macrophages, SEAP). It counts as cell-based. The following applies: for EC50: RAW-Blue, sigmoidal 4PL fitting, 24 h; for Potency in the RAW-Blue cell assay: compared with R848. The source says: This example describes the general procedure used to assess the compounds' potency to induce NF-κB expression in RAW 264.7 macrophages cells that stably express secreted embryonic alkaline phosphatase (SEAP) upon induction of NF-κB. RAW-Blue™ reporter cells are commonly used for quantifying TLR7/8 agonist potencies in reporter cell assays. Conversely, we used RAW-Blue™ cells to evaluate the potencies of the synthesized derivatives, as previously reported^1. ^1 Ryu et al, J. Am. Chem. Soc. (2014), 136, 10823-10825
RAW 264.7 assays were carried out using RAW-Blue™ cells and QUANTI-Blue™ detection solution (Invivogen, Toulouse, France, at. #raw-sp and rep-qbs respectively). The assays carried out according to the protocol from Invivogen. RAW 264.7 macrophages were cultured in DMEM high glucose (4.5 g/L) supplemented with 10% (v/v) FBS, 1% (v/v) P/S, and Normocin™ (100 μg/ml). On the day of the study, the cells were seeded in a 96-well plate (ThermoFisher Scientific, Roskilde, Denmark) with 20 μL TLR7/8 agonist solutions per well at varying concentrations by adding 180 μL cell suspension, made by suspending cells to 0.55×10^6 cells per mL in the prepared cell medium added Zeocin™ (200 μg/ml), leading to a final concentration of 100×10^3 cells per well in triplicates. Cells were incubated with the TLR7/8 agonists, diluted from 10 mM DMSO stocks in PBS, at 37° C. with 5% CO2 for 24 h for SEAP production. 50 μL SEAP containing cell supernatant from each well was added 150 μL QUANTI-Blue™ detection solution and was incubated at 37° C. for 3-6 h. The resulting response was quantified spectrophotometrically at 640 nm and was normalized to the signal from a blank sample (DMSO dilution) run in parallel.
Half maximal effective concentration (EC50) values were determined from sigmoidal 4PL fittings from the resulting dose-response curves in GraphPad Prism.

The target of data set [2] is T1, mTLR7 (Mus musculus, UniProt P58681).
T1 construct: host or cells: HEK-Blue (HEK293-derived) reporter cells
T1 sequence (P58681 27-1050): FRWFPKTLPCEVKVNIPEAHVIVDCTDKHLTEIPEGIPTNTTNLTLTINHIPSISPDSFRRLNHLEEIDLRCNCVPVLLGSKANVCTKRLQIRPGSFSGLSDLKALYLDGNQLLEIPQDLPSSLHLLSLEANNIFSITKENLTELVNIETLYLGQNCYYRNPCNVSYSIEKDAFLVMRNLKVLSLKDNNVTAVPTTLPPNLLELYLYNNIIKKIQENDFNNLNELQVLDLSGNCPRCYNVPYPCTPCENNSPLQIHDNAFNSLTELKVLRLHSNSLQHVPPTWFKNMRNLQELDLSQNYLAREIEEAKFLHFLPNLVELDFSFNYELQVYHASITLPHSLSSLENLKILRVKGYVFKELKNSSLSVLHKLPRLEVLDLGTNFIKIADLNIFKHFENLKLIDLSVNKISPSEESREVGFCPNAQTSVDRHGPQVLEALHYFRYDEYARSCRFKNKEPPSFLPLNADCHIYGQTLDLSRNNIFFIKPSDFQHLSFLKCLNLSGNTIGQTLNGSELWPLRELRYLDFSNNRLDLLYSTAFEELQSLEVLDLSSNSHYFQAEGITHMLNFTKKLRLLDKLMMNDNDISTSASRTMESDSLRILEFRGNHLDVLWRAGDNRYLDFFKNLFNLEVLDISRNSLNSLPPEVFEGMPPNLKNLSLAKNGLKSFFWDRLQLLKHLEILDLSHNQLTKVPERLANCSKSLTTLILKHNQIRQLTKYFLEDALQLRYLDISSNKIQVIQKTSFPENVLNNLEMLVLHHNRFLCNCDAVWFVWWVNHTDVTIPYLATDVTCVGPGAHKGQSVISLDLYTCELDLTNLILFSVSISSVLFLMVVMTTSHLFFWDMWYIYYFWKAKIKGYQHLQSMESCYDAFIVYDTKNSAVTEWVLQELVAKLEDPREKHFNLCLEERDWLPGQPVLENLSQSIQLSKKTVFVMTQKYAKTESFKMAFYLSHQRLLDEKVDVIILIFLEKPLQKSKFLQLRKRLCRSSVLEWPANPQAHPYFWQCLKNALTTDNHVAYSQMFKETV
Nature of the data set: NF-κB induction in HEK-Blue mTLR7 reporter cells. The note with it: free compounds, 16 h. The class given is cell-based. The source says:
This example describes the general procedure used to assess the compounds' potency to induce NF-κB expression in human embryonic kidney (HEK) cells. The transcription factor NF-κB is expressed upon stimulation of TLR7/8 and is commonly used for quantifying TLR7/8 agonist potencies in reporter cell assays. Conversely, we used HEK-Blue mTLR-7 cells to evaluate the potencies of the synthesized derivatives, as previously reported (Shukla et al, J. Med. Chem. (2010), 53, 4450-4465).
HEK-Blue TLR7 assays were carried out using HEK-Blue™ mTLR7 cells (Invivogen, Toulouse, France, Cat. #hkb-mtlr7). The assays were carried out according to the protocol from Invivogen. TLR expressing cells were cultured in DMEM high glucose (4.5 g/L) supplemented with 10% (v/v) fetal bovine serum (FBS) and 1% (v/v) penicillin-streptomycin (P/S) to 50 U/ml penicillin and […] streptomycin. On the day of the study, the cells were seeded in a 96-well plate (ThermoFisher Scientific, Roskilde, Denmark) with 20 μL imidazoquinoline TLR7/8 agonist solutions per well at varying concentrations by adding 180 μL cell suspension, made by suspending cells to 0.22×10^6 cells per mL in HEK-Blue™ Detection medium (Invivogen, Cat. #hb-det2) added Blasticidin (10 μg/ml) and Zeocin™ (100 μg/ml), leading to a final concentration of 40×10^3 cells per well in triplicates. Cells were incubated with the imidazoquinoline TLR7/8 agonists, formulated in liposomes or dissolved in PBS, at 37° C. with 5% CO2 for 16 h. The response was quantified spectrophotometrically at 655 nm and was normalized to the signal from a blank sample (DMSO dilution) run in parallel.

The nature of data set [3]: Remote loading efficiency of small molecules into liposomes (PD-10 size exclusion, HPLC). The class given is physicochemical. The note with it: mean (SD), n = 2. Here is the method: A solution of the small molecule (modified TLR agonist) was lyophilized in a vial equipped with a magnetic stir bar over night to form a fluffy white powder. This powder was added either formulation F1 or F2 to the wanted drug/lipid ratio. The resulting mixture was stirred at 55° C. or 41° C. for formulation F1 and F2 respectively for 3h, then allowed to cool to rt before the solutions were refrigerated and stored at 4° C.
Remote loading efficiency was determined at 1 h and 3 h by taking out 100 μL of the mixture and applying this and 900 μL buffer (25 mM HEPES, 10 vol % sucrose buffer, pH 7.4) to a PD-10 column size exclusion column. Following, 10×1 mL fractions were collected, and the small molecule compound concentrations in the loading mixture and in the liposome containing fractions were determined on analytical HPLC. Loading efficiency was calculated as percentage of molecules found in liposome containing fractions out of the applied amount. The general procedure for the small molecule remote loading is visualized in FIG. 3. The general concept of remote loading imidazoquinolines in liposomes that are dialyzed against HEPES is visualized in FIG. 4.
A general note: Size exclusion chromatography separates by hydrodynamic size, large species first.

Where [4] appears, read: formulation F3, drug/lipid ratio 0.10, 1 h.
Where [5] appears, read: formulation F3, drug/lipid ratio 0.10, 3 h.

The structures appear in SMILES notation. Values joined by “and” are separate entries in the source; they are usually repeats but may differ in a detail not shown here. Identical values can stand only once.

Broadly, the EC50 is the concentration giving half of the maximal effect. Higher therefore signals a need for much substance. On to `CCCCc1nc2c(N)nc3ccccc3c2n1Cc1ccc(CNC(=O)[C@@H](N)C(C)C)cc1` [MK145, (S)-2-amino-N-(4-((4-amino-2-butyl-1H-imidazo[4,5-c]quinolin-1-yl)methyl)benzyl)-3-methylbutanamide], for which, in data set [1], the EC50 came to 30 nM and the “Potency in the RAW-Blue cell assay” value is reported as “the most potent compounds”. In addition, the “TLR7 agonist activity (NF-κB induction)” value in data set [2] was “potencies that were higher or comparable to that of R848”. Further, the “Remote loading efficiency 1 h (%)” value in data set [3] (setting [4]) is given as 97.2 (4.0) %. Further, the “Remote loading efficiency 3 h (%)” value in data set [3] (setting [5]) is reported as 92.4 (3.9) %.
As to `CCCCc1nc2c(N)nc3ccccc3c2n1Cc1ccc(CNC(=O)[C@H](C)N)cc1` [MK137, (S)-2-amino-N-(4-((4-amino-2-butyl-1H-imidazo[4,5-c]quinolin-1-yl)methyl)benzyl)propanamide], in data set [1], it took 40 nM to reach a half-maximal effect (EC50) and the “Potency in the RAW-Blue cell assay” value was “greater potencies than R848”. Besides, the “TLR7 agonist activity (NF-κB induction)” value in data set [2] is recorded as “potencies that were higher or comparable to that of R848”. For the same compound, the “Remote loading efficiency 1 h (%)” value in data set [3] (setting [4]) is given as 98.1 (5.2) %. Further, the “Remote loading efficiency 3 h (%)” value in data set [3] (setting [5]) is on record as 99.1 (1.8) %.
For `CCCCc1nc2c(N)nc3ccccc3c2n1Cc1ccc(CNC(=O)[C@@H](N)CC(N)=O)cc1` [MK135, (S)-2-amino-N-(4-((4-amino-2-butyl-1H-imidazo [4,5-c]quinolin-1-yl)methyl)benzyl)succinamide], in data set [1], it took 420 nM to reach a half-maximal effect (EC50). In data set [2], the “TLR7 agonist activity (NF-κB induction)” value is “the lowest potency of all derivatives”. The “Remote loading efficiency 1 h (%)” value is on record as 85.9 (4.7) % in data set [3] (setting [4]); 55.5 (5.7) % in data set [3] (formulation F3, drug/lipid ratio 0.25, 1 h); 19.5 (0.1) % in data set [3] (formulation F3, drug/lipid ratio 0.50, 1 h). Also, the “Remote loading efficiency 3 h (%)” value is 86.4 (5.1) % in data set [3] (setting [5]); 65.0 (7.7) % in data set [3] (formulation F3, drug/lipid ratio 0.25, 3 h); 23% and 23.3 (0.3) % in data set [3] (formulation F3, drug/lipid ratio 0.50, 3 h).
`CCCCc1nc2c(N)nc3ccccc3c2n1Cc1ccc(CNC(=O)[C@@H](N)CCC(N)=O)cc1` [MK136, (S)-2-amino-N-(4-((4-amino-2-butyl-1H-imidazo[4,5-c]quinolin-1-yl)methyl)benzyl)pentanediamide]: in data set [1], the EC50 was determined as 740 nM. In addition, in data set [2], the “TLR7 agonist activity (NF-κB induction)” value is on record as “the lowest potency of all derivatives”. For the same compound, the “Remote loading efficiency 1 h (%)” value in data set [3] (setting [4]) is reported as 2.0 (0.2) %. For the same compound, the “Remote loading efficiency 3 h (%)” value in data set [3] (setting [5]) is 3.1 (0.4) %.
On to `CCCCc1nc2c(N)nc3ccccc3c2n1Cc1ccc(CNC(=O)CN)cc1` [MK139, 2-amino-N-(4-((4-amino-2-butyl-1H-imidazo[4,5-c]quinolin-1-yl)methyl)benzyl)acetamide], for which the concentration giving a half-maximal response (EC50) in data set [1] worked out at 340 nM. Moreover, the “TLR7 agonist activity (NF-κB induction)” value in data set [2] is listed as “potencies that were higher or comparable to that of R848”. Further, the “Remote loading efficiency 1 h (%)” value in data set [3] (setting [4]) is 84.7 (17.4) %. For the same compound, the “Remote loading efficiency 3 h (%)” value in data set [3] (setting [5]) was 90.6 (1.6) %.
Take `CCCCc1nc2c(N)nc3ccccc3c2n1Cc1ccc(CNC(=O)[C@@H](N)[C@@H](C)CC)cc1` [MK146, (2S,3S)-2-amino-N-(4-((4-amino-2-butyl-1H-imidazo[4,5-c]quinolin-1-yl)methyl)benzyl)-3-methylpentanamide]: in data set [1], the half-maximal effective concentration (EC50) amounted to 40 nM and the “Potency in the RAW-Blue cell assay” value is “greater potencies than R848”. Moreover, the “TLR7 agonist activity (NF-κB induction)” value in data set [2] is recorded as “potencies that were higher or comparable to that of R848”. For the same compound, in data set [3] (setting [4]), the “Remote loading efficiency 1 h (%)” value is recorded as 94.1 (2.9) %. Further, the “Remote loading efficiency 3 h (%)” value in data set [3] (setting [5]) is 88.4 (1.5) %.
On to `CCCCc1nc2c(N)nc3ccccc3c2n1Cc1ccc(CNC(=O)[C@@H]2CCCN2)cc1` [MK140, (S)—N-(4-((4-amino-2-butyl-1H-imidazo[4,5-c]quinolin-1-yl)methyl)benzyl)pyrrolidine-2-carboxamide], for which, in data set [1], the EC50 was found to be 50 nM and the “Potency in the RAW-Blue cell assay” value is reported as “greater potencies than R848”. For the same compound, the “TLR7 agonist activity (NF-κB induction)” value in data set [2] is listed as “potencies that were higher or comparable to that of R848”. Besides, the “Remote loading efficiency 1 h (%)” value in data set [3] (setting [4]) is given as 93.6 (0.1) %. In addition, the “Remote loading efficiency 3 h (%)” value in data set [3] (setting [5]) is on record as 98.3 (3.4) %.

For the origin of these results see patent publication US20210213010A1, “TLR7/8 AGONISTS AND LIPOSOME COMPOSITIONS” (Torque Therapeutics, Inc., priority 2018, published 2021).
